From the METLIN SMRT retention time set (Domingo-Almenara et al. 2019)

Test: gradient 5% acetonitrile 3 min, to 50% in 2 min, to 85% in 15 min, held 3 min, 100 µL/min
Conditions: column: Zorbax Extend-C18 2.1 x 50 mm; eluents: water / acetonitrile, 0.1% formic acid
Procedure, shortened: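 Pure standards were run in mixtures of ~100 molecules by HPLC coupled to a quadrupole time-of-flight mass spectrometer. The column was a Zorbax Extend-C18 (2.1 × 50 mm, 1.8 μm) at 100 μL/min, with water and acetonitrile each containing 0.1% formic acid, in positive and negative ionization mode. Dead and dwell volumes were 40 μL and 900 μL. Retention time was taken from computationally picked adduct peaks, each manually inspected, with data collected over 3 months.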

**Q.** Which RP-LC retention time does the source give for `CCN1C(=O)c2cccnc2Sc2cc(NC(=O)c3ccc(OC)nc3)ccc21` here?
**A.** Its RP-LC retention time is 756 s.

**Q.** For `CN1C(=O)Cc2cc(C(=O)N3CCN(c4ccc(Cl)cc4)CC3)ccc21`, which RP-LC retention time is on record?
**A.** Its RP-LC retention time is 813 s.

**Q.** For `CN(C)CC(=O)N1CC(c2nc(-c3ccc(F)cc3)no2)C2(CCOCC2)C1` (stereo not given), which RP-LC retention time is on record?
**A.** Its RP-LC retention time is 572 s.

**Q.** For `Cc1ccccc1CNC(=O)C1CCCN(c2nnc(C)c3c(C)n(-c4ccccc4)nc23)C1` (stereo not given), which RP-LC retention time is on record?
**A.** Its RP-LC retention time is 727 s.

**Q.** For `CN(CCc1ccccn1)C(=O)C1CCN(c2cnn(C)c(=O)c2)CC1`, which RP-LC retention time is on record?
**A.** The RP-LC retention time was 553 s.

**Q.** With `COc1ccc(NC(=O)COc2ccc(-c3nnc4n3CCCC4)cc2)cc1OC` as the compound, how does the RP-LC retention time read?
**A.** The RP-LC retention time was 626 s.

**Q.** With `CCOC(=O)c1ccc(NC(=O)C2CCCN(S(=O)(=O)c3ccc(OC)c(Cl)c3)C2)cc1` (stereo not given) as the compound, how does the RP-LC retention time read?
**A.** The RP-LC retention time was 1060 s.

**Q.** With `COc1ccc(-c2noc(C3CC(=O)N(c4cc(Cl)ccc4OC)C3)n2)cc1` (stereo not given) as the compound, how does the RP-LC retention time read?
**A.** Its RP-LC retention time is 950 s.

**Q.** For `Cc1ccc(S(=O)(=O)N2CCN(C(=O)c3ccccc3Cl)CC2)cc1C`, which RP-LC retention time is on record?
**A.** Its RP-LC retention time is 669 s.

**Q.** Which RP-LC retention time does the source give for `Cc1ccc(Cl)cc1NC(=O)CSc1cc(N2CCN(c3ccccc3F)CC2)ncn1` here?
**A.** Its RP-LC retention time is 1280 s.

**Q.** With `O=C(NC1CCCCCCC1)C1CCN(Cc2cc3ccccc3n2Cc2cccc(Cl)c2)CC1` as the compound, how does the RP-LC retention time read?
**A.** Its RP-LC retention time is 930 s.

**Q.** Which RP-LC retention time does the source give for `Cc1nc(-c2ccccc2)cc2nn(CC(=O)NC(C)CCc3ccccc3)c(=O)n12` (stereo not given) here?
**A.** Its RP-LC retention time is 989 s.

**Q.** With `Cc1cccc(-c2noc(C3CCCN3S(=O)(=O)c3ccc4c(c3)CCCC4)n2)c1` (stereo not given) as the compound, how does the RP-LC retention time read?
**A.** The RP-LC retention time was 1340 s.

**Q.** With `Cc1cc2n(n1)CCCN2C(=O)CCC(=O)N1CCC(Cc2ccccc2)CC1` as the compound, how does the RP-LC retention time read?
**A.** The RP-LC retention time was 818 s.

**Q.** For `COc1ccc(-c2ccc(=O)n(Cc3nc(-c4ccc(Cl)cc4)no3)n2)cc1`, which RP-LC retention time is on record?
**A.** Its RP-LC retention time is 1070 s.

**Q.** Which RP-LC retention time does the source give for `CN(C)C(=O)c1ccc2c(c1)nnn2CCNC(=O)Nc1cc(Cl)ccc1Cl` here?
**A.** The RP-LC retention time was 719 s.

**Q.** For `Cc1ccc(C(=O)Nc2nc(-c3ccc(C(C)(C)C)cc3)cs2)cc1`, which RP-LC retention time is on record?
**A.** The RP-LC retention time was 1370 s.

**Q.** With `CCOC(=O)c1c(C)c(CCC(=O)NCCN2CCCCC2)c(C)n1C` as the compound, how does the RP-LC retention time read?
**A.** The RP-LC retention time was 573 s.

**Q.** Which RP-LC retention time does the source give for `Cc1ccc(-c2ncn(C3CCCCC3)c2-c2ccc(C(=O)N3CCN(c4ncccn4)CC3)o2)cc1` here?
**A.** The RP-LC retention time was 748 s.

**Q.** For `COCCn1c(SCc2nc(-c3ccccc3)no2)nc2cc3c(cc2c1=O)OCO3`, which RP-LC retention time is on record?
**A.** Its RP-LC retention time is 1040 s.

**Q.** Which RP-LC retention time does the source give for `O=C(NCCc1c[nH]c2ccccc12)c1cc2cccnc2n(Cc2ccccc2F)c1=O` here?
**A.** Its RP-LC retention time is 1080 s.

**Q.** For `Cc1noc2ncn(CC(=O)NCc3cccc(F)c3)c(=O)c12`, which RP-LC retention time is on record?
**A.** Its RP-LC retention time is 712 s.

**Q.** Which RP-LC retention time does the source give for `COCCN1C(=O)c2oc3ccc(F)cc3c(=O)c2C1c1ccc([N+](=O)[O-])cc1` (stereo not given) here?
**A.** The RP-LC retention time was 803 s.

**Q.** With `COCCNC(=O)C1c2ccccc2C(=O)N(C)C1c1cccs1` (stereo not given) as the compound, how does the RP-LC retention time read?
**A.** The RP-LC retention time was 679 s.

**Q.** Which RP-LC retention time does the source give for `CCOC(=O)C(CC)SC1=NS(=O)(=O)c2cc(F)ccc2N1` (stereo not given) here?
**A.** Its RP-LC retention time is 758 s.

**Q.** With `CC1=C(c2ccc(Cl)cc2)S(=O)(=O)N=C1N1CCCN(C(=O)NC(C)(C)C)CC1` as the compound, how does the RP-LC retention time read?
**A.** Its RP-LC retention time is 871 s.

**Q.** With `CC(C)Cn1cc(S(=O)(=O)NCc2cccc(Cl)c2)c2cccnc21` as the compound, how does the RP-LC retention time read?
**A.** Its RP-LC retention time is 1020 s.

**Q.** Which RP-LC retention time does the source give for `CCN1CCN(c2cc(C)c3cc(NC(=O)CC(C)C)ccc3n2)CC1` here?
**A.** The RP-LC retention time was 560 s.

**Q.** For `Cc1nc(N2CCN(c3ccccn3)CC2)c2c(C)c(C(=O)Nc3ccc(F)cc3F)sc2n1`, which RP-LC retention time is on record?
**A.** Its RP-LC retention time is 701 s.

**Q.** With `COc1cc(OC)cc(-c2nc(-c3cn(Cc4cccc(F)c4)nn3)no2)c1` as the compound, how does the RP-LC retention time read?
**A.** Its RP-LC retention time is 1030 s.

**Q.** For `CCn1c(CCC(=O)NCc2ccccc2OC)nc2ccc(C)cc2c1=O`, which RP-LC retention time is on record?
**A.** The RP-LC retention time was 817 s.

**Q.** For `Cn1c(N2CCCC(C(=O)N3CCN(c4ccccc4F)CC3)C2)cc(=O)n(C)c1=O` (stereo not given), which RP-LC retention time is on record?
**A.** Its RP-LC retention time is 765 s.

**Q.** With `COc1ccc(Cn2nnc(C(=O)N3CCSCC3)c2-n2cccc2)cc1` as the compound, how does the RP-LC retention time read?
**A.** The RP-LC retention time was 884 s.

**Q.** For `CCNC(=O)N(CC(=O)N1CCc2sccc2C1COc1ccccc1)CC1CC1` (stereo not given), which RP-LC retention time is on record?
**A.** Its RP-LC retention time is 857 s.

**Q.** For `COC(=O)c1ccc(C2NC(=O)c3[nH]nc(-c4ccc(OC)cc4)c32)cc1` (stereo not given), which RP-LC retention time is on record?
**A.** Its RP-LC retention time is 702 s.

**Q.** With `COc1nn(C)cc1C(=O)Nc1ccc(-c2cn3ccsc3n2)cc1` as the compound, how does the RP-LC retention time read?
**A.** The RP-LC retention time was 575 s.

**Q.** Which RP-LC retention time does the source give for `Cc1cccc(NC(=O)C2CCN(S(C)(=O)=O)c3cc(Cl)ccc3O2)c1C` (stereo not given) here?
**A.** The RP-LC retention time was 1090 s.

**Q.** With `Clc1ccc(-c2ccc(CNCc3ccccn3)o2)cc1` as the compound, how does the RP-LC retention time read?
**A.** Its RP-LC retention time is 689 s.

**Q.** For `Cc1ccccc1NC(=O)N1CCC(n2cnc3c(C)cccc3c2=O)CC1`, which RP-LC retention time is on record?
**A.** Its RP-LC retention time is 754 s.

**Q.** With `Cc1ccc(C(=O)NCc2cnoc2-c2ccc(F)cc2)cn1` as the compound, how does the RP-LC retention time read?
**A.** The RP-LC retention time was 665 s.

**Q.** For `Cc1cc(NC(=O)c2nc(C(C)C)oc2C)ccc1F`, which RP-LC retention time is on record?
**A.** The RP-LC retention time was 1140 s.

**Q.** With `COc1ccc(OC)c2c(C)cc(N3CCN(S(=O)(=O)c4ccc(C)cc4)CC3)nc12` as the compound, how does the RP-LC retention time read?
**A.** Its RP-LC retention time is 798 s.

**Q.** Which RP-LC retention time does the source give for `CCN1CCCn2nc(C3CCN(C(=O)c4ccc5c(c4)OCO5)CC3)cc2C1=O` here?
**A.** Its RP-LC retention time is 628 s.

**Q.** For `O=C(Cc1ccsc1)N1CCc2nn(CC3CC3)c(=O)n2CC1`, which RP-LC retention time is on record?
**A.** The RP-LC retention time was 674 s.

**Q.** With `COc1ccc(OC)c(NC(=O)N2CCN(c3cc(-c4ccccc4)ncn3)CC2)c1` as the compound, how does the RP-LC retention time read?
**A.** Its RP-LC retention time is 667 s.

**Q.** With `Cc1cc(F)ccc1NC(=O)CN1C(=O)NC2(CCCCC2)C1=O` as the compound, how does the RP-LC retention time read?
**A.** Its RP-LC retention time is 764 s.

**Q.** For `COc1ccc(C(=O)NCC(=O)Nc2nc3ccccc3[nH]2)cc1`, which RP-LC retention time is on record?
**A.** The RP-LC retention time was 606 s.

**Q.** Which RP-LC retention time does the source give for `Cc1ccc(Nc2nc(C)cc(N3CCN(S(=O)(=O)c4cccc(C(F)(F)F)c4)CC3)n2)cc1` here?
**A.** The RP-LC retention time was 886 s.

**Q.** With `CCCN(CC1CCOC1)S(=O)(=O)c1cccc(C(F)(F)F)c1` (stereo not given) as the compound, how does the RP-LC retention time read?
**A.** Its RP-LC retention time is 1000 s.

**Q.** With `CCc1noc(-c2cccnc2N2CCCN(Cc3ccc(F)cc3Cl)CC2)n1` as the compound, how does the RP-LC retention time read?
**A.** The RP-LC retention time was 700 s.

**Q.** With `COc1ccc(-n2cc(C(=O)OCC(=O)OC(C)(C)C)c3ccccc3c2=O)cc1` as the compound, how does the RP-LC retention time read?
**A.** The RP-LC retention time was 1140 s.

**Q.** With `CC(=O)Nc1cc([N+](=O)[O-])c(N(C)S(=O)(=O)c2ccccc2)c2ccccc12` as the compound, how does the RP-LC retention time read?
**A.** Its RP-LC retention time is 781 s.

**Q.** For `COc1ccc(-c2cc3n(n2)CCCN(S(=O)(=O)c2ccc(C(C)=O)cc2)C3)cc1`, which RP-LC retention time is on record?
**A.** The RP-LC retention time was 882 s.

**Q.** Which RP-LC retention time does the source give for `CCN(CC)CCNC(=O)C1CCCN(c2ccc(Sc3ccc(Br)cc3)nn2)C1` (stereo not given) here?
**A.** The RP-LC retention time was 664 s.

**Q.** For `CCn1cnc(S(=O)(=O)N2CCCC(C(=O)Nc3cccc(F)c3)C2)c1` (stereo not given), which RP-LC retention time is on record?
**A.** The RP-LC retention time was 760 s.

**Q.** With `Cc1ccc(C)c(NC(=O)N2C[C@H](c3nc(-c4cccnc4)no3)[C@@H](C)C2)c1` as the compound, how does the RP-LC retention time read?
**A.** The RP-LC retention time was 794 s.

**Q.** With `O=C(CN1CCN(Cc2ccccc2)C1=O)NCc1ccc(F)cc1Cl` as the compound, how does the RP-LC retention time read?
**A.** Its RP-LC retention time is 833 s.

**Q.** Which RP-LC retention time does the source give for `COc1ccc(CNC(=O)c2cn(C)nc2S(=O)(=O)N2CCSCC2)cc1` here?
**A.** Its RP-LC retention time is 818 s.

**Q.** For `CCn1cccc1-c1nc(C)c(C(=O)Nc2ccc(C)c(C)c2)s1`, which RP-LC retention time is on record?
**A.** The RP-LC retention time was 1270 s.

**Q.** Which RP-LC retention time does the source give for `CCCNC(=O)c1cn(-c2ccc(-c3nc(CC)no3)cn2)cn1` here?
**A.** The RP-LC retention time was 777 s.

**Q.** Which RP-LC retention time does the source give for `COc1ccc(-c2nc3nc(C)cc(C)n3c2Nc2c(C)cccc2C)cc1` here?
**A.** Its RP-LC retention time is 766 s.

**Q.** With `CCN(CC)CCNC(=O)C1CCN(c2nc3cccnc3s2)CC1` as the compound, how does the RP-LC retention time read?
**A.** Its RP-LC retention time is 573 s.

**Q.** Which RP-LC retention time does the source give for `O=C(NC1CCCN(c2cc(-c3ccncc3)[nH]n2)C1)c1ccc2c(c1)OCO2` (stereo not given) here?
**A.** The RP-LC retention time was 603 s.

**Q.** For `O=S(=O)(NCC1CCCO1)c1ccc(Cl)c(-c2nnc(-c3ccccc3)o2)c1` (stereo not given), which RP-LC retention time is on record?
**A.** The RP-LC retention time was 914 s.

**Q.** For `Cc1sc(-c2cc(C(F)(F)F)on2)cc1S(=O)(=O)NCc1ccc(N(C)C)cc1`, which RP-LC retention time is on record?
**A.** The RP-LC retention time was 982 s.
